PubChem BioAssay (NCI)
“And” between values parts separate entries of the source, which are not always exact repeats. Equal entries are not always repeated.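 Each compound was tested at five concentrations against cells in 96-well plates for 48 hours. GI50 marks 50% less growth. TGI marks complete inhibition of growth.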

Tests used:
Assay in all cases: NCI tumour cell line growth inhibition, 48 h
TK-10 renal = system: TK-10 renal
UACC-257 melanoma = system: UACC-257 melanoma
LXFL 529 NSCLC = system: LXFL 529 NSCLC
SF-539 CNS = system: SF-539 CNS
OVCAR-5 ovarian = system: OVCAR-5 ovarian
OVCAR-8 ovarian = system: OVCAR-8 ovarian
SF-295 CNS = system: SF-295 CNS
OVCAR-4 ovarian = system: OVCAR-4 ovarian
U251 CNS = system: U251 CNS
SK-MEL-5 melanoma = system: SK-MEL-5 melanoma
HL-60(TB) leukemia = system: HL-60(TB) leukemia
SNB-78 CNS = system: SNB-78 CNS
HOP-62 NSCLC = system: HOP-62 NSCLC
786-0 renal = system: 786-0 renal
M19-MEL melanoma = system: M19-MEL melanoma
DMS 273 small cell lung = system: DMS 273 small cell lung
RPMI-8226 leukemia = system: RPMI-8226 leukemia
HT29 colon = system: HT29 colon
HCT-116 colon = system: HCT-116 colon
SR leukemia = system: SR leukemia
SNB-19 CNS = system: SNB-19 CNS
SNB-75 CNS = system: SNB-75 CNS
DLD-1 colon = system: DLD-1 colon
KM20L2 colon = system: KM20L2 colon
MALME-3M melanoma = system: MALME-3M melanoma
CCRF-CEM leukemia = system: CCRF-CEM leukemia
NCI-H522 lung = system: NCI-H522 lung
UACC-62 melanoma = system: UACC-62 melanoma
COLO 205 colon = system: COLO 205 colon
LOX IMVI melanoma = system: LOX IMVI melanoma
SK-MEL-2 melanoma = system: SK-MEL-2 melanoma
KM12 colon = system: KM12 colon
NCI-H460 lung = system: NCI-H460 lung
K-562 leukemia = system: K-562 leukemia
SN12C renal = system: SN12C renal
DMS 114 small cell lung = system: DMS 114 small cell lung
HOP-18 NSCLC = system: HOP-18 NSCLC
IGROV1 ovarian = system: IGROV1 ovarian
A549 NSCLC = system: A549 NSCLC
NCI-H23 lung = system: NCI-H23 lung
SK-MEL-28 melanoma = system: SK-MEL-28 melanoma
SW-620 colon = system: SW-620 colon
HCT-15 colon = system: HCT-15 colon
M14 melanoma = system: M14 melanoma
MOLT-4 leukemia = system: MOLT-4 leukemia
ACHN renal = system: ACHN renal
UO-31 renal = system: UO-31 renal
A498 renal = system: A498 renal
OVCAR-3 ovarian = system: OVCAR-3 ovarian
RXF 393 renal = system: RXF 393 renal
MDA-MB-231 breast = system: MDA-MB-231 breast
MCF7 breast = system: MCF7 breast
BT-549 breast = system: BT-549 breast
MDA-N = system: MDA-N
CAKI-1 renal = system: CAKI-1 renal
SF-268 CNS = system: SF-268 CNS
DU-145 prostate = system: DU-145 prostate
PC-3 prostate = system: PC-3 prostate
HOP-92 NSCLC = system: HOP-92 NSCLC
EKVX NSCLC = system: EKVX NSCLC
NCI-H226 lung = system: NCI-H226 lung
HS 578T breast = system: HS 578T breast
NCI/ADR-RES ovarian = system: NCI/ADR-RES ovarian
T-47D breast = system: T-47D breast
SK-OV-3 ovarian = system: SK-OV-3 ovarian
HCC-2998 colon = system: HCC-2998 colon

O=C1/C(=C/c2ccccc2)CN(C(=O)C(F)(F)F)C/C1=C\c1ccccc1
TGI (TK-10 renal): 13.4 µM
TGI (UACC-257 melanoma): 3.32 µM
TGI (LXFL 529 NSCLC): 3.26 µM
TGI (SF-539 CNS): 4.06 µM
TGI (OVCAR-5 ovarian): 8.37 µM
TGI (OVCAR-8 ovarian): 3.37 µM
TGI (SF-295 CNS): 3.13 µM
TGI (OVCAR-4 ovarian): 4.72 µM
TGI (U251 CNS): 2.95 µM
TGI (SK-MEL-5 melanoma): 3.26 µM
TGI (HL-60(TB) leukemia): 2.85 µM
TGI (SNB-78 CNS): 11.4 µM
TGI (HOP-62 NSCLC): 29.6 µM
TGI (786-0 renal): 3.28 µM
TGI (M19-MEL melanoma): 3.1 µM
TGI (DMS 273 small cell lung): 2.95 µM
TGI (RPMI-8226 leukemia): 0.932 µM
TGI (HT29 colon): 3.01 µM
TGI (HCT-116 colon): 1.08 µM
TGI (SR leukemia): 5.48 µM
TGI (SNB-19 CNS): 14.8 µM
TGI (SNB-75 CNS): 19 µM
TGI (DLD-1 colon): 4.27 µM
TGI (KM20L2 colon): 4.34 µM
TGI (MALME-3M melanoma): 15.9 µM
TGI (CCRF-CEM leukemia): 8.03 µM
TGI (NCI-H522 lung): 5.77 µM
TGI (UACC-62 melanoma): 3.76 µM
TGI (COLO 205 colon): 5.11 µM
TGI (LOX IMVI melanoma): 2.5 µM
TGI (SK-MEL-2 melanoma): 23.1 µM
TGI (KM12 colon): 3.98 µM
TGI (NCI-H460 lung): 2.97 µM
TGI (K-562 leukemia): > 100 µM
TGI (SN12C renal): 3.12 µM
TGI (DMS 114 small cell lung): 3.33 µM
TGI (HOP-18 NSCLC): 18.4 µM
TGI (IGROV1 ovarian): 5.55 µM
TGI (A549 NSCLC): 12.1 µM
TGI (NCI-H23 lung): 4.52 µM
TGI (SK-MEL-28 melanoma): 3.45 µM
TGI (SW-620 colon): 1.83 µM
TGI (HCT-15 colon): 5.33 µM
TGI (M14 melanoma): 3.29 µM
TGI (MOLT-4 leukemia): 79.6 µM
TGI (ACHN renal): 4.99 µM
TGI (UO-31 renal): 4.77 µM
TGI (A498 renal): 4.41 µM
TGI (OVCAR-3 ovarian): 10.7 µM
TGI (RXF 393 renal): 3.63 µM

COc1ccc(NCc2cc(OC)c(OC)c(OC)c2)cc1
TGI (TK-10 renal): > 100 µM
GI50 (UACC-257 melanoma): 0.338 µM and 1.16 µM
TGI (UACC-257 melanoma): > 100 µM
TGI (LXFL 529 NSCLC): > 100 µM
TGI (MDA-MB-231 breast): > 100 µM
TGI (SF-539 CNS): 2.22 µM and 0.929 µM
GI50 (OVCAR-5 ovarian): > 91.7 µM and 20.2 µM
TGI (OVCAR-5 ovarian): > 100 µM
TGI (MCF7 breast): > 100 µM
TGI (OVCAR-8 ovarian): > 100 µM
TGI (BT-549 breast): > 100 µM
TGI (OVCAR-4 ovarian): > 100 µM
TGI (U251 CNS): > 58.9 µM and 15.1 µM
GI50 (SK-MEL-5 melanoma): 0.252 µM
TGI (SK-MEL-5 melanoma): 32.7 µM and > 74.5 µM
TGI (SNB-78 CNS): > 100 µM
TGI (HOP-62 NSCLC): > 74.1 µM
TGI (MDA-N): 2.55 µM
TGI (786-0 renal): > 100 µM
TGI (DMS 273 small cell lung): > 100 µM
GI50 (CAKI-1 renal): 0.404 µM and 1.04 µM
TGI (CAKI-1 renal): > 100 µM
TGI (RPMI-8226 leukemia): > 100 µM
TGI (SF-268 CNS): > 100 µM
TGI (HT29 colon): > 100 µM and 12.9 µM
TGI (HCT-116 colon): > 72 µM and 34.1 µM
TGI (SR leukemia): > 29 µM
TGI (SNB-19 CNS): > 100 µM
GI50 (SNB-75 CNS): 0.513 µM and 0.262 µM
TGI (SNB-75 CNS): > 100 µM
TGI (DLD-1 colon): > 100 µM
GI50 (KM20L2 colon): 0.198 µM
TGI (MALME-3M melanoma): > 100 µM
TGI (DU-145 prostate): > 47.8 µM
GI50 (CCRF-CEM leukemia): 0.281 µM and 0.855 µM
TGI (CCRF-CEM leukemia): > 100 µM
TGI (PC-3 prostate): > 100 µM
GI50 (UACC-62 melanoma): 0.308 µM
TGI (UACC-62 melanoma): > 100 µM
TGI (COLO 205 colon): 0.784 µM and 2.83 µM
TGI (HOP-92 NSCLC): > 100 µM and 19.4 µM
TGI (LOX IMVI melanoma): > 100 µM
GI50 (SK-MEL-2 melanoma): 0.328 µM
TGI (SK-MEL-2 melanoma): > 100 µM
TGI (KM12 colon): > 32.7 µM and 31.3 µM
TGI (NCI-H460 lung): > 32.7 µM and 37.1 µM
GI50 (K-562 leukemia): 0.0444 µM and 0.114 µM
TGI (K-562 leukemia): > 100 µM
TGI (SN12C renal): > 100 µM
TGI (DMS 114 small cell lung): 0.833 µM and 0.654 µM
GI50 (HOP-18 NSCLC): > 43.3 µM
TGI (HOP-18 NSCLC): > 100 µM
TGI (EKVX NSCLC): > 100 µM
TGI (IGROV1 ovarian): > 100 µM
TGI (A549 NSCLC): > 100 µM
TGI (NCI-H23 lung): 31.4 µM
GI50 (NCI-H226 lung): 0.414 µM and 4.04 µM
TGI (NCI-H226 lung): 6.38 µM and 29.1 µM
TGI (SK-MEL-28 melanoma): > 100 µM
TGI (SW-620 colon): > 100 µM
TGI (HS 578T breast): > 100 µM
TGI (HCT-15 colon): > 39.7 µM and 36.5 µM
TGI (M14 melanoma): > 100 µM and 15.4 µM
TGI (NCI/ADR-RES ovarian): > 17.1 µM
TGI (MOLT-4 leukemia): > 100 µM
GI50 (ACHN renal): 0.713 µM and 1.84 µM
TGI (ACHN renal): > 100 µM
GI50 (UO-31 renal): 2.79 µM
TGI (UO-31 renal): > 100 µM
TGI (T-47D breast): > 100 µM
TGI (A498 renal): > 70.6 µM and 17.3 µM
TGI (SK-OV-3 ovarian): > 100 µM and 22.5 µM
TGI (OVCAR-3 ovarian): 1.17 µM and 2.89 µM
TGI (HCC-2998 colon): 2.73 µM and 3.31 µM
TGI (RXF 393 renal): 7.62 µM
